Results from ChEMBL document CHEMBL3046329, “Sensitivity to silthiofam, tebuconazole and difenoconazole of Gaeumannomyces graminis var. tritici isolates from China” (Pest Manag Sci, 2012).
≈ marks a conversion by molar mass, not a printed value.

Tests used:
Format in all cases: functional, organism-based
Gaeumannomyces tritici [1] = assay: Antifungal activity against sithiofam-resistant Gaeumannomyces graminis var. tritici isolate HN20 expressing C1 genetic cluster assessed as reduction in fungal colony diameter after 4 days; settings: isolate HN20, 96 h
Gaeumannomyces tritici [2] = assay: Antifungal activity against sithiofam-sensitive Gaeumannomyces graminis var. tritici isolate JS08 expressing C2 genetic cluster assessed as reduction in fungal colony diameter after 4 days; settings: isolate JS08, 96 h
Gaeumannomyces tritici [3] = assay: Antifungal activity against sithiofam-sensitive Gaeumannomyces graminis var. tritici isolate AH04 expressing C2 genetic cluster assessed as reduction in fungal colony diameter after 4 days; settings: isolate AH04, 96 h
Gaeumannomyces tritici [4] = assay: Antifungal activity against sithiofam-resistant Gaeumannomyces graminis var. tritici isolate HN03 expressing C1 genetic cluster assessed as reduction in fungal colony diameter after 4 days; settings: isolate HN03, 96 h
Gaeumannomyces tritici [5] = assay: Antifungal activity against sithiofam-resistant Gaeumannomyces graminis var. tritici isolate HN01 expressing C1 genetic cluster assessed as reduction in fungal colony diameter after 4 days; settings: isolate HN01, 96 h
Gaeumannomyces tritici [6] = assay: Antifungal activity against sithiofam-resistant Gaeumannomyces graminis var. tritici isolate JS09 expressing C1 genetic cluster assessed as reduction in fungal colony diameter after 4 days; settings: isolate JS09, 96 h
Gaeumannomyces tritici [7] = assay: Antifungal activity against sithiofam-resistant Gaeumannomyces graminis var. tritici isolate HN10 expressing C1 genetic cluster assessed as reduction in fungal colony diameter after 4 days; settings: isolate HN10, 96 h
Gaeumannomyces tritici [8] = assay: Antifungal activity against sithiofam-sensitive Gaeumannomyces graminis var. tritici isolate JS03 expressing C1 genetic cluster assessed as reduction in fungal colony diameter after 4 days; settings: isolate JS03, 96 h
Gaeumannomyces tritici [9] = assay: Antifungal activity against sithiofam-sensitive Gaeumannomyces graminis var. tritici isolate HN11 expressing C2 genetic cluster assessed as reduction in fungal colony diameter after 4 days; settings: isolate HN11, HN11, 96 h
Gaeumannomyces tritici [10] = assay: Antifungal activity against sithiofam-resistant Gaeumannomyces graminis var. tritici isolate AH06 expressing C1 genetic cluster assessed as reduction in fungal colony diameter after 4 days; settings: isolate AH06, 96 h
Gaeumannomyces tritici [11] = assay: Antifungal activity against sithiofam-resistant Gaeumannomyces graminis var. tritici isolate JS07 expressing C1 genetic cluster assessed as reduction in fungal colony diameter after 4 days; settings: isolate JS07, 96 h
Gaeumannomyces tritici [12] = assay: Antifungal activity against sithiofam-sensitive Gaeumannomyces graminis var. tritici isolate HN28 expressing C2 genetic cluster assessed as reduction in fungal colony diameter after 4 days; settings: isolate HN28, 96 h
Gaeumannomyces tritici [13] = assay: Antifungal activity against sithiofam-resistant Gaeumannomyces graminis var. tritici isolate HN12 expressing C1 genetic cluster assessed as reduction in fungal colony diameter after 4 days; settings: isolate HN12, HN12, 96 h
Gaeumannomyces tritici [14] = assay: Antifungal activity against sithiofam-resistant Gaeumannomyces graminis var. tritici isolate AH02 expressing C1 genetic cluster assessed as reduction in fungal colony diameter after 4 days; settings: isolate AH02, 96 h
Gaeumannomyces tritici [15] = assay: Antifungal activity against sithiofam-resistant Gaeumannomyces graminis var. tritici isolate HN04 expressing C1 genetic cluster assessed as reduction in fungal colony diameter after 4 days; settings: isolate HN04, 96 h
Gaeumannomyces tritici [16] = assay: Antifungal activity against sithiofam-resistant Gaeumannomyces graminis var. tritici isolate JS04 expressing C1 genetic cluster assessed as reduction in fungal colony diameter after 4 days; settings: isolate JS04, 96 h
Gaeumannomyces tritici [17] = assay: Antifungal activity against sithiofam-sensitive Gaeumannomyces graminis var. tritici isolate AH11 expressing C2 genetic cluster assessed as reduction in fungal colony diameter after 4 days; settings: isolate AH11, 96 h
Gaeumannomyces tritici [18] = assay: Antifungal activity against sithiofam-sensitive Gaeumannomyces graminis var. tritici isolate HN30 expressing C2 genetic cluster assessed as reduction in fungal colony diameter after 4 days; settings: isolate HN30, 96 h
Gaeumannomyces tritici [19] = assay: Antifungal activity against sithiofam-sensitive Gaeumannomyces graminis var. tritici isolate HN21 expressing C2 genetic cluster assessed as reduction in fungal colony diameter after 4 days; settings: isolate HN21, 96 h
Gaeumannomyces tritici [20] = assay: Antifungal activity against sithiofam-resistant Gaeumannomyces graminis var. tritici isolate HN09 expressing C1 genetic cluster assessed as reduction in fungal colony diameter after 4 days; settings: isolate HN09, 96 h
Gaeumannomyces tritici [21] = assay: Antifungal activity against sithiofam-resistant Gaeumannomyces graminis var. tritici isolate HN27 expressing […] genetic cluster assessed as reduction in fungal colony diameter after 4 days; settings: isolate HN27, 96 h
Gaeumannomyces tritici [22] = assay: Antifungal activity against sithiofam-resistant Gaeumannomyces graminis var. tritici isolate AH14 expressing C1 genetic cluster assessed as reduction in fungal colony diameter after 4 days; settings: isolate AH14, 96 h
Gaeumannomyces tritici [23] = assay: Antifungal activity against sithiofam-resistant Gaeumannomyces graminis var. tritici isolate HN16 expressing C1 genetic cluster assessed as reduction in fungal colony diameter after 4 days; settings: isolate HN16, 96 h
Gaeumannomyces tritici [24] = assay: Antifungal activity against sithiofam-resistant Gaeumannomyces graminis var. tritici isolate JS11 expressing C1 genetic cluster assessed as reduction in fungal colony diameter after 4 days; settings: isolate JS11, 96 h
Gaeumannomyces tritici [25] = assay: Antifungal activity against sithiofam-sensitive Gaeumannomyces graminis var. tritici isolate AH16 expressing C2 genetic cluster assessed as reduction in fungal colony diameter after 4 days; settings: isolate AH16, 96 h
Gaeumannomyces tritici [26] = assay: Antifungal activity against sithiofam-resistant Gaeumannomyces graminis var. tritici isolate AH13 expressing C1 genetic cluster assessed as reduction in fungal colony diameter after 4 days; settings: isolate AH13, 96 h
Gaeumannomyces tritici [27] = assay: Antifungal activity against sithiofam-sensitive Gaeumannomyces graminis var. tritici isolate AH05 expressing C2 genetic cluster assessed as reduction in fungal colony diameter after 4 days; settings: isolate AH05, 96 h
Gaeumannomyces tritici [28] = assay: Antifungal activity against sithiofam-sensitive Gaeumannomyces graminis var. tritici isolate HN26 expressing C2 genetic cluster assessed as reduction in fungal colony diameter after 4 days; settings: isolate HN26, 96 h
Gaeumannomyces tritici [29] = assay: Antifungal activity against sithiofam-sensitive Gaeumannomyces graminis var. tritici isolate AH15 expressing C2 genetic cluster assessed as reduction in fungal colony diameter after 4 days; settings: isolate AH15, 96 h
Gaeumannomyces tritici [30] = assay: Antifungal activity against sithiofam-resistant Gaeumannomyces graminis var. tritici isolate HN08 expressing C1 genetic cluster assessed as reduction in fungal colony diameter after 4 days; settings: isolate HN08, 96 h
Gaeumannomyces tritici [31] = assay: Antifungal activity against sithiofam-resistant Gaeumannomyces graminis var. tritici isolate HN05 expressing C1 genetic cluster assessed as reduction in fungal colony diameter after 4 days; settings: isolate HN05, 96 h
Gaeumannomyces tritici [32] = assay: Antifungal activity against sithiofam-resistant Gaeumannomyces graminis var. tritici isolate HN13 expressing C1 genetic cluster assessed as reduction in fungal colony diameter after 4 days; settings: isolate HN13, 96 h
Gaeumannomyces tritici [33] = assay: Antifungal activity against sithiofam-sensitive Gaeumannomyces graminis var. tritici isolate JS02 expressing C1 genetic cluster assessed as reduction in fungal colony diameter after 4 days; settings: isolate JS02, 96 h
Gaeumannomyces tritici [34] = assay: Antifungal activity against sithiofam-resistant Gaeumannomyces graminis var. tritici isolate AH10 expressing C1 genetic cluster assessed as reduction in fungal colony diameter after 4 days; settings: isolate AH10, 96 h
Gaeumannomyces tritici [35] = assay: Antifungal activity against sithiofam-sensitive Gaeumannomyces graminis var. tritici isolate SD06 expressing C2 genetic cluster assessed as reduction in fungal colony diameter after 4 days; settings: isolate SD06, 96 h
Gaeumannomyces tritici [36] = assay: Antifungal activity against sithiofam-sensitive Gaeumannomyces graminis var. tritici isolate AH09 expressing C2 genetic cluster assessed as reduction in fungal colony diameter after 4 days; settings: isolate AH09, 96 h
Gaeumannomyces tritici [37] = assay: Antifungal activity against sithiofam-sensitive Gaeumannomyces graminis var. tritici isolate SD02 expressing C2 genetic cluster assessed as reduction in fungal colony diameter after 4 days; settings: isolate SD02, 96 h

Structure (SMILES): CC1COC(Cn2cncn2)(c2ccc(Oc3ccc(Cl)cc3)cc2Cl)O1 (configuration not stated) [DIFENOCONAZOLE]
- EC50 (Gaeumannomyces tritici [1]): 0.569 µg/mL (≈ 1.4 µM)
- EC50 (Gaeumannomyces tritici [2]): 0.163 µg/mL (≈ 0.4 µM)
- EC50 (Gaeumannomyces tritici [3]): 0.668 µg/mL (≈ 1.64 µM)
- EC50 (Gaeumannomyces tritici [4]): 0.336 µg/mL (≈ 0.827 µM)
- EC50 (Gaeumannomyces tritici [5]): 0.389 µg/mL (≈ 0.958 µM)
- EC50 (Gaeumannomyces tritici [6]): 0.13 µg/mL (≈ 0.32 µM)
- EC50 (Gaeumannomyces tritici [7]): 0.375 µg/mL (≈ 0.923 µM)
- EC50 (Gaeumannomyces tritici [8]): 0.121 µg/mL (≈ 0.299 µM)
- EC50 (Gaeumannomyces tritici [9]): 0.164 µg/mL (≈ 0.403 µM)
- EC50 (Gaeumannomyces tritici [10]): 0.24 µg/mL (≈ 0.59 µM)
- EC50 (Gaeumannomyces tritici [11]): 0.201 µg/mL (≈ 0.495 µM)
- EC50 (Gaeumannomyces tritici [12]): 0.0604 µg/mL (≈ 0.149 µM)
- EC50 (Gaeumannomyces tritici [13]): 0.588 µg/mL (≈ 1.45 µM)
- EC50 (Gaeumannomyces tritici [14]): 0.273 µg/mL (≈ 0.672 µM)
- EC50 (Gaeumannomyces tritici [15]): 0.255 µg/mL (≈ 0.626 µM)
- EC50 (Gaeumannomyces tritici [16]): 0.198 µg/mL (≈ 0.486 µM)
- EC50 (Gaeumannomyces tritici [17]): 0.129 µg/mL (≈ 0.317 µM)
- EC50 (Gaeumannomyces tritici [18]): 0.102 µg/mL (≈ 0.251 µM)
- EC50 (Gaeumannomyces tritici [19]): 0.254 µg/mL (≈ 0.625 µM)
- EC50 (Gaeumannomyces tritici [20]): 0.159 µg/mL (≈ 0.392 µM)
- EC50 (Gaeumannomyces tritici [21]): 0.226 µg/mL (≈ 0.557 µM)
- EC50 (Gaeumannomyces tritici [22]): 0.301 µg/mL (≈ 0.741 µM)
- EC50 (Gaeumannomyces tritici [23]): 1.01 µg/mL (≈ 2.49 µM)
- EC50 (Gaeumannomyces tritici [24]): 0.164 µg/mL (≈ 0.403 µM)
- EC50 (Gaeumannomyces tritici [25]): 0.126 µg/mL (≈ 0.309 µM)
- EC50 (Gaeumannomyces tritici [26]): 0.288 µg/mL (≈ 0.708 µM)
- EC50 (Gaeumannomyces tritici [27]): 0.0683 µg/mL (≈ 0.168 µM)
- EC50 (Gaeumannomyces tritici [28]): 0.366 µg/mL (≈ 0.902 µM)
- EC50 (Gaeumannomyces tritici [29]): 0.169 µg/mL (≈ 0.415 µM)
- EC50 (Gaeumannomyces tritici [30]): 0.216 µg/mL (≈ 0.533 µM)
- EC50 (Gaeumannomyces tritici [31]): 0.261 µg/mL (≈ 0.643 µM)
- EC50 (Gaeumannomyces tritici [32]): 0.223 µg/mL (≈ 0.548 µM)
- EC50 (Gaeumannomyces tritici [33]): 0.28 µg/mL (≈ 0.689 µM)
- EC50 (Gaeumannomyces tritici [34]): 0.128 µg/mL (≈ 0.314 µM)
- EC50 (Gaeumannomyces tritici [35]): 0.18 µg/mL (≈ 0.443 µM)
- EC50 (Gaeumannomyces tritici [36]): 0.142 µg/mL (≈ 0.349 µM)
- EC50 (Gaeumannomyces tritici [37]): 0.335 µg/mL (≈ 0.825 µM)
